These results are taken from paper PMC5508973 (ChemMedChem, 2017).

A value given as a limit tells only on which side of the number the result lay.

One data set relates to U937. Put plainly: cells. In kind it is cell-based. The following applies: Homo sapiens, U-937, 24 h.
Another data set concerns MM.1S. Description: cells. The following applies: Homo sapiens, MM1.S, 24 h. Format: cell-based.
For a further data set, the system named is MM.1R. Put plainly: cells. Format: cell-based. The following applies: Homo sapiens, 24 h.
A further data set has as its system K562. Description: cells. As to conditions: Homo sapiens, K562, 24 h. Format: cell-based.
Another data set has as its system K562/ADR. Description: cells. In kind it is cell-based. As to conditions: Homo sapiens, 24 h.
The subject of the next data set is HeLa. Description: cells. In kind it is cell-based. As to conditions: Homo sapiens, 24 h.
The test system of a further data set is LO2. Description: cells. Format: cell-based. The following applies: Homo sapiens, L02, 24 h.
The test system of another data set is NIH3T3. Put plainly: cells. Format: cell-based. The following applies: Mus musculus, NIH3T3, 24 h.
For data set [1], the system named is CBL-resistant K562 cell line. Format: cell-based, Human. The following applies: K562, 24-h incubation, Annexin-V.
The subject of data set [2] is primary chronic lymphocytic leukemia (CLL) cells. In kind it is cell-based, Human. The following applies: treatment with 50 μM.
Data set [3] deals with 17.7 kb segment of nDNA at the b-globin gene and 8.9 kb fragment of mtDNA. Put plainly: DNA damage by PCR amplification of nDNA and mtDNA. Format: cell-based. The following applies: PCR amplification after cell treatment.
The test system of data set [4] is peripheral blood mononuclear cells (PBMCs) from normal healthy donors. The following applies: treatment with 50 μM.

`O=C(O)CCCc1ccc(N(CCCl)CCCl)cc1` [CBL, chlorambucil]: the IC50 with U937 is 45.7 ± 3.71 µM; in the data set on MM.1S it was 47.4 ± 5.08 µM; in the data set on MM.1R it was 236 ± 16.9 µM; in the data set with K562, 417 ± 27.9 µM; in the data set on K562/ADR, greater than 1000 µM; in the data set on HeLa, 321 ± 33.2 µM. For the same compound, the half-maximal inhibitory concentration (IC50) with LO2 and with NIH3T3 was greater than 600 µM throughout. Moreover, the apoptotic cell population in data set [1] was 11.24%. The CLL cells killed in data set [2] was determined as 32.3%. In [3], the “DNA damage in nuclear and mitochondrial genome” value is “primarily damaged nDNA with very few mitochondrial lesions”. The compound further yielded a PBMCs killed in [4] of 11%.

By IC50 is commonly meant the point on the concentration scale where inhibition reaches its midpoint.
